Earlier results on two molecules are cited in paper PMC9798770 (ACS Omega, 2022).

This data set concerns SARS-CoV-2.

In the case of `Cc1ccc(N)cc1C(=O)N[C@H](C)c1cccc2ccccc12` [GRL0617], the EC50 (in general, the concentration giving half of the maximal effect) (read-out: EC50, antiviral activity) is around 20 µM.

`C[C@H](c1cccc2ccccc12)N(C)Cc1ccc(O)cc1` [Jun9-72-2]: the “antiviral activity compared with GRL0617” value is on record as “higher”.
